Data taken from ChEMBL document CHEMBL2203009, “Synthesis of isoindole and benzoisoindole derivatives of teicoplanin pseudoaglycon with remarkable antibacterial and antiviral activities” (Bioorg Med Chem Lett, 2012).
≈ marks a conversion by molar mass, not a printed value.

Columns and labels:
[1] = Toxicity in MDCK cells assessed as induction of cell morphology changes; type: cell-based, Canis lupus familiaris; conditions: dog
H3N2 subtype = experiment: Antiviral activity against Influenza A virus (A/Hong Kong/7/1987(H3N2)) […] infected in MDCK cells assessed as inhibition of virus-induced cytopathic effect; type: functional, organism-based
[2] = test system: Vesicular stomatitis virus; experiment: Antiviral activity against Vesicular stomatitis virus infected in HEL cells assessed as inhibition of virus-induced cytopathic effect; type: functional, organism-based
Human alphaherpesvirus 1 [3] = experiment: Antiviral activity against thymidine kinase deficient and acyclovir-resistant HSV1 KOS infected in HEL cells assessed as inhibition of virus-induced cytopathic effect; type: functional, organism-based; conditions: Human alphaherpesvirus 1, KOS
Human alphaherpesvirus 2 = experiment: Antiviral activity against HSV2 G infected in HEL cells assessed as inhibition of virus-induced cytopathic effect; type: functional, organism-based; conditions: Human alphaherpesvirus 2, strain G
Enterococcus faecalis [4] = experiment: Antimicrobial activity against Enterococcus faecalis ATCC 29212; type: functional
[5] = test system: Staphylococcus epidermidis; experiment: Antimicrobial activity against Staphylococcus epidermidis ATCC 35984 biofilms; type: functional
Human alphaherpesvirus 1 [6] = experiment: Antiviral activity against HSV1 KOS infected in HEL cells assessed as inhibition of virus-induced cytopathic effect; type: functional, organism-based; conditions: Human alphaherpesvirus 1, KOS
Staphylococcus aureus [7] = experiment: Antimicrobial activity against methicillin-resistant Staphylococcus aureus ATCC 33591; type: functional
Enterococcus faecalis [8] = experiment: Antimicrobial activity against Enterococcus faecalis 15376 over-expressing vanA; type: functional
[9] = Toxicity in HEL cells assessed as induction of cell morphology changes; type: cell-based; conditions: human
Influenza B virus = experiment: Antiviral activity against Influenza B virus (B/Hong Kong/05/1972) […] infected in MDCK cells assessed as inhibition of virus-induced cytopathic effect; type: functional, cell-based; conditions: B/Hong Kong/05/1972, MDCK
Vaccinia virus = experiment: Antiviral activity against Vaccinia virus infected in HEL cells assessed as inhibition of virus-induced cytopathic effect; type: functional, organism-based; conditions: Orthopoxvirus vaccinia
Influenza A virus = experiment: Antiviral activity against Influenza A virus (A/Puerto Rico/8/1934(H1N1)) H1N1 infected in MDCK cells assessed as inhibition of virus-induced cytopathic effect; type: functional, organism-based
Enterococcus faecalis [10] = experiment: Antimicrobial activity against Enterococcus faecalis ATCC 51299 over-expressing vanB; type: functional
Bacillus subtilis = experiment: Antimicrobial activity against Bacillus subtilis ATCC 6633; type: functional
Staphylococcus aureus [11] = experiment: Antimicrobial activity against methicillin-sensitive Staphylococcus aureus ATCC 29213; type: functional
[12] = test system: Staphylococcus epidermidis; experiment: Antimicrobial activity against Staphylococcus epidermidis over-expressing MecA; type: functional

Structure (SMILES)	MCC [1] [µM]	EC50 (H3N2 subtype) [µM]	EC50 [2] [µM]	EC50 (Human alphaherpesvirus 1 [3]) [µM]	EC50 (Human alphaherpesvirus 2) [µM]	MBC (Enterococcus faecalis [4]) [µg/mL]	MIC (Enterococcus faecalis [4]) [µg/mL]	MBC [5] [µg/mL]	MIC [5] [µg/mL]	EC50 (Human alphaherpesvirus 1 [6]) [µM]	MBC (Staphylococcus aureus [7]) [µg/mL]	MIC (Staphylococcus aureus [7]) [µg/mL]	MBC (Enterococcus faecalis [8]) [µg/mL]	MIC (Enterococcus faecalis [8]) [µg/mL]	MCC [9] [µM]	EC50 (Influenza B virus) [µM]	EC50 (Vaccinia virus) [µM]	EC50 (Influenza A virus) [µM]	MBC (Enterococcus faecalis [10]) [µg/mL]	MIC (Enterococcus faecalis [10]) [µg/mL]	other results
CC(=O)N[C@H]1[C@H](O[C@@H]2c3ccc(c(Cl)c3)Oc3cc4cc(c3O)Oc3ccc(cc3Cl)C[C@H]3NC(=O)[C@H](n5cc6cc7ccccc7cc6c5Sc5nc6ccccc6s5)c5ccc(O)c(c5)Oc5cc(O)cc(c5)[C@H](NC3=O)C(=O)N[C@H]4C(=O)N[C@H]3C(=O)N[C@@H]2C(=O)N[C@H](C(=O)O)c2cc(O)cc(O)c2-c2cc3ccc2O)O[C@H](CO)[C@@H](O)[C@@H]1O	20	1.6	> 100	> 100	> 100	256 (≈ 149 µM)	0.0313 (≈ 0.0182 µM)	0.5 (≈ 0.291 µM)	0.015 (≈ 0.00873 µM)	> 100	4 (≈ 2.33 µM)	0.015 (≈ 0.00873 µM)	32 (≈ 18.6 µM)	0.0313 (≈ 0.0182 µM)	> 100	> 100	> 100	< 4.9	256 (≈ 149 µM)	1 (≈ 0.582 µM)	MBC (Bacillus subtilis): 4 µg/mL (≈ 2.33 µM); MIC (Bacillus subtilis): 0.0313 µg/mL (≈ 0.0182 µM); MBC (Staphylococcus aureus [11]): 0.5 µg/mL (≈ 0.291 µM); MIC (Staphylococcus aureus [11]): 0.015 µg/mL (≈ 0.00873 µM); MBC [12]: 256 µg/mL (≈ 149 µM); MIC [12]: 0.0313 µg/mL (≈ 0.0182 µM)
CC(=O)N[C@H]1[C@H](O[C@@H]2c3ccc(c(Cl)c3)Oc3cc4cc(c3O)Oc3ccc(cc3Cl)C[C@H]3NC(=O)[C@H](n5cc6ccccc6c5Sc5ncccn5)c5ccc(O)c(c5)Oc5cc(O)cc(c5)[C@H](NC3=O)C(=O)N[C@H]4C(=O)N[C@H]3C(=O)N[C@@H]2C(=O)N[C@H](C(=O)O)c2cc(O)cc(O)c2-c2cc3ccc2O)O[C@H](CO)[C@@H](O)[C@@H]1O	20	> 100	> 100	50	45	256 (≈ 159 µM)	0.0313 (≈ 0.0194 µM)	1 (≈ 0.62 µM)	0.0165 (≈ 0.0102 µM)	47	8 (≈ 4.96 µM)	0.0313 (≈ 0.0194 µM)	256 (≈ 159 µM)	0.0625 (≈ 0.0388 µM)	> 100	> 100	≥ 58	> 100	256 (≈ 159 µM)	1 (≈ 0.62 µM)	MBC (Bacillus subtilis): 0.5 µg/mL (≈ 0.31 µM); MIC (Bacillus subtilis): 0.0625 µg/mL (≈ 0.0388 µM); MBC (Staphylococcus aureus [11]): 0.5 µg/mL (≈ 0.31 µM); MIC (Staphylococcus aureus [11]): 0.0313 µg/mL (≈ 0.0194 µM); MBC [12]: 64 µg/mL (≈ 39.7 µM); MIC [12]: 4 µg/mL (≈ 2.48 µM)
CC(=O)N[C@@H]1[C@@H](OC(C)=O)[C@H](OC(C)=O)[C@@H](COC(C)=O)O[C@H]1Sc1c2ccccc2cn1[C@H]1C(=O)N[C@@H]2Cc3ccc(c(Cl)c3)Oc3cc4cc(c3O)Oc3ccc(cc3Cl)[C@@H](O[C@@H]3O[C@H](CO)[C@@H](O)[C@H](O)[C@H]3NC(C)=O)[C@@H]3NC(=O)[C@H](NC(=O)[C@@H]4NC(=O)[C@@H](NC2=O)c2cc(O)cc(c2)Oc2cc1ccc2O)c1ccc(O)c(c1)-c1c(O)cc(O)cc1[C@@H](C(=O)O)NC3=O	20	> 100	> 100	45	40	256 (≈ 137 µM)	2 (≈ 1.07 µM)	2 (≈ 1.07 µM)	0.0075 (≈ 0.00402 µM)	40	2 (≈ 1.07 µM)	0.0625 (≈ 0.0335 µM)	256 (≈ 137 µM)	0.0625 (≈ 0.0335 µM)	> 100	> 100	45	> 100	256 (≈ 137 µM)	2 (≈ 1.07 µM)	MBC (Bacillus subtilis): 1 µg/mL (≈ 0.537 µM); MIC (Bacillus subtilis): 0.25 µg/mL (≈ 0.134 µM); MBC (Staphylococcus aureus [11]): 1 µg/mL (≈ 0.537 µM); MIC (Staphylococcus aureus [11]): 0.125 µg/mL (≈ 0.0671 µM); MBC [12]: 32 µg/mL (≈ 17.2 µM); MIC [12]: 2 µg/mL (≈ 1.07 µM)
